For 16 compounds, IC50 results are on record in US9238656B2, “Imidazo[4,5-b]pyridine derivatives as ALK and JAK modulators for the treatment of proliferative disorders” (priority 2012, dated 2016).

The structures appear in SMILES notation.

Experiment [1] deals with baculovirus-expressed ALK (Homo sapiens, UniProt Q9UM73). In words: ALK kinase inhibition, TRF/ELISA. It counts as biochemical. As to conditions: read-out: ALK Potency. The gist of the method:
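Eu-PT66 anti-phosphotyrosine TRF read-out measured phosphorylation of plate-bound GST-PLC-γ (coated at 10 μg/mL). The phosphorylation was driven by 30 ng/mL ALK for 15 minutes at 37° C.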
Background: ELISA stands for enzyme-linked immunosorbent assay.

The target of experiment [2] is baculovirus-expressed JAK2 kinase (Homo sapiens, UniProt O60674). In words: biochemical. To be noted: 0.2 μM ATP; read-out: JAK2 Potency. The method in brief:
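IC50 derived by variable-slope sigmoidal fit of percent inhibition against log compound concentration. Baculovirus-expressed JAK2 (15 ng/mL) phosphorylated a plate-bound biotinylated 15-mer peptide for 20 min at room temperature; detection by time-resolved fluorescence.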

Sequence of baculovirus-expressed ALK (Q9UM73 19-1620): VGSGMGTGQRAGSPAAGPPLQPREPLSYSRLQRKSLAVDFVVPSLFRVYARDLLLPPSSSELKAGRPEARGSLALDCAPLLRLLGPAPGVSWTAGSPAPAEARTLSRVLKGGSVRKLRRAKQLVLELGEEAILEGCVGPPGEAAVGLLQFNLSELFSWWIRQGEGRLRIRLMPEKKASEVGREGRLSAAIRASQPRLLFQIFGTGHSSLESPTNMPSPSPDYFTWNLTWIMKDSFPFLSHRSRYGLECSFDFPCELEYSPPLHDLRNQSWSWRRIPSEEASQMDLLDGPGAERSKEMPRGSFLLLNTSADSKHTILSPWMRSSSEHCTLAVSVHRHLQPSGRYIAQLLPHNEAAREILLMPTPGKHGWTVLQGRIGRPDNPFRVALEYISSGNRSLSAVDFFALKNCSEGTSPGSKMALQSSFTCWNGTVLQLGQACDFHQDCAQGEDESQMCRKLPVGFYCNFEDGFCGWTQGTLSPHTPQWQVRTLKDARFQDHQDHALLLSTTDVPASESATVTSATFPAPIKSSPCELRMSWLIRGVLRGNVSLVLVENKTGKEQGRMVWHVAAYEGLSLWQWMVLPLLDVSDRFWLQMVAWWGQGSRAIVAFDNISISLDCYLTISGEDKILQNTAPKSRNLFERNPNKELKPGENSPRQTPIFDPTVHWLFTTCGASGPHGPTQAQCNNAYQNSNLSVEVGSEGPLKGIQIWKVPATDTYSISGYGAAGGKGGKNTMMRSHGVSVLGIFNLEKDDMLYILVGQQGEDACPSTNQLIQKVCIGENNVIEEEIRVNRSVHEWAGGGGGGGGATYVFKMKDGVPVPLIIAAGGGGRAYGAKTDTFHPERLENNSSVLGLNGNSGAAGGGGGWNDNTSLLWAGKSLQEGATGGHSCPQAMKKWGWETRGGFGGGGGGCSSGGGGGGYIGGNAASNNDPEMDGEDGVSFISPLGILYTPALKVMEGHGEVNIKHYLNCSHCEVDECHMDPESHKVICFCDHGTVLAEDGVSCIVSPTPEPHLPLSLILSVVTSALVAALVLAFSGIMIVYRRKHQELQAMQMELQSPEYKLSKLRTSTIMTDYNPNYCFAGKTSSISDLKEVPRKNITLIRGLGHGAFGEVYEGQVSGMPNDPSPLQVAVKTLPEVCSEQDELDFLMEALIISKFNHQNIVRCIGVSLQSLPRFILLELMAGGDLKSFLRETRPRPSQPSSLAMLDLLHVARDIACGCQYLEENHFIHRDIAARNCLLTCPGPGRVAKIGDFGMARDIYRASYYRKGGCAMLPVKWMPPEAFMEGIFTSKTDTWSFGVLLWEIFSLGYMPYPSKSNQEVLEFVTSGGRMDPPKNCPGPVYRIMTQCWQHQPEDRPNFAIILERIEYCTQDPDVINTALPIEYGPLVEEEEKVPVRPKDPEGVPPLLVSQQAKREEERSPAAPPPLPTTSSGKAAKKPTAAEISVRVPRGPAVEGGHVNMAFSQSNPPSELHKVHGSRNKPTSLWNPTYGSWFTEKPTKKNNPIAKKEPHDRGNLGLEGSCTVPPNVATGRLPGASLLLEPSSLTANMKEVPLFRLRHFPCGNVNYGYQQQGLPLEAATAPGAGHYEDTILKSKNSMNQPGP
Sequence of baculovirus-expressed JAK2 kinase (O60674 whole entry): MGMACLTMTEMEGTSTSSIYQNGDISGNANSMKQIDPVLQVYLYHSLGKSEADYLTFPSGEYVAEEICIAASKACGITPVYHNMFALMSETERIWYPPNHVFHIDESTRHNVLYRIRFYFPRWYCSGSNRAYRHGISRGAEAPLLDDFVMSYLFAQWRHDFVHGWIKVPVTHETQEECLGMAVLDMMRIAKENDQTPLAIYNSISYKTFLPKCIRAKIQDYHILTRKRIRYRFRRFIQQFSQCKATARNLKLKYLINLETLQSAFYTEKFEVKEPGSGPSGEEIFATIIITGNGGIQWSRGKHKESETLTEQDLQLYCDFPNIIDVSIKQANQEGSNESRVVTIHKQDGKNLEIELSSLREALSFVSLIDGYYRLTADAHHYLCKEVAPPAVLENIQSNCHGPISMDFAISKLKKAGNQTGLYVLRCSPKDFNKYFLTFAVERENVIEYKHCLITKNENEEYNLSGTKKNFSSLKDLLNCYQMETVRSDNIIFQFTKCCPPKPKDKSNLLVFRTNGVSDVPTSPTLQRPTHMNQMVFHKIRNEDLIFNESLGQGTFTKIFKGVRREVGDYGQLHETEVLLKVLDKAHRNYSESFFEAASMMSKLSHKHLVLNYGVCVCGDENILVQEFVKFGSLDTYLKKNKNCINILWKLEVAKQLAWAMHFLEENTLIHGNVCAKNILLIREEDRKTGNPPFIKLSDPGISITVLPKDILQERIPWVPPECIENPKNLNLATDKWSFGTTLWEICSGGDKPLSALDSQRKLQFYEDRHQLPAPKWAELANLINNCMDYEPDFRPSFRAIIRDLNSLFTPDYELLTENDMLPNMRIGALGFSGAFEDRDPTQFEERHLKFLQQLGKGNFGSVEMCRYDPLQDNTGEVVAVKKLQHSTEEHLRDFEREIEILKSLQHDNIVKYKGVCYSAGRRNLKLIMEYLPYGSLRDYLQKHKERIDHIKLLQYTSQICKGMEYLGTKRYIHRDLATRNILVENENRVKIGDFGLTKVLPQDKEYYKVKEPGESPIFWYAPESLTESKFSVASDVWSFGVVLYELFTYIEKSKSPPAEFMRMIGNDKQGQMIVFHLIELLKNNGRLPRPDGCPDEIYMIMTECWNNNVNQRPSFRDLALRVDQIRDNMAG

As for `CC(C)NC(=O)[C@@H]1[C@H](Nc2c(Cl)cnc3[nH]c(-c4sc(N5CCOCC5)nc4Cl)nc23)[C@H]2C=C[C@@H]1C2` [Compound CLXIII, (1S,2S,3R,4R)-3-[6-Chloro-2-(4-chloro-2-morpholin-4-yl-thiazol-5-yl)-3H-imidazo[4,5-b]pyridin-7-ylamino]-bicyclo[2.2.1]hept-5-ene-2-carboxylic acid isopropylamide], the IC50 is less than 100 nM in experiment [1] and more than 10000 nM in experiment [2].
In the same order, the values of `CC(=O)N1CCC(n2cc(-c3nc4c(N[C@H]5[C@@H](C(N)=O)[C@@H]6C=C[C@H]5C6)c(Cl)cnc4[nH]3)cn2)CC1` [Compound LXI, (1S,2S,3R,4R)-3-{2-[1-(1-Acetyl-piperidin-4-yl)-1H-pyrazol-4-yl]-6-chloro-3H-imidazo[4,5-b]pyridine-7-ylamino}-bicyclo[2.2.1]hept-5-ene-2-carboxylic acid amide] are 100 to 1000 nM and less than 100 nM.
In the same order, the values of `CC(O)CN1CCC(Oc2cccc(-c3nc4c(N[C@H]5[C@@H](C(N)=O)[C@@H]6C=C[C@H]5C6)c(Cl)cnc4[nH]3)c2)CC1` (stereo partly drawn) [Compound CCLI, (1S,2S,3R,4R)-3-(6-chloro-2-(3-(1-(2-hydroxypropyl)piperidin-4-yloxy)phenyl)-3H-imidazo[4,5-b]pyridine-7-ylamino)pyridin[2.2.1]hept-5-ene-2-carboxamide] are less than 100 nM and less than 100 nM.
As for `Cc1cc(N2CCOCC2)ccc1-c1nc2c(N[C@H]3[C@@H](C(N)=O)[C@@H]4C=C[C@H]3C4)c(Cl)cnc2[nH]1` [Compound CXXI, (1S,2S,3R,4R)-3-[6-Chloro-2-(2-methyl-4-morpholin-4-yl-phenyl)-3H-imidazo[4,5-b]pyridin-7-ylamino]-bicyclo[2.2.1]hept-5-ene-2-carboxylic acid amide], the IC50 is 100 to 1000 nM in experiment [1] and less than 100 nM in experiment [2].
For `CN1CCN(C(=O)COc2ccc(-c3nc4c(N[C@H]5[C@@H](C(N)=O)[C@@H]6C=C[C@H]5C6)c(Cl)cnc4[nH]3)cc2)CC1` [Compound CCXLIV, (1S,2S,3R,4R)-3-(6-chloro-2-(4-(2-(4-methylpiperazin-1-yl)-2-oxoethoxy)phenyl)-3H-imidazo[4,5-b]pyridin-7-ylamino)bicyclo[2.2.1]hept-5-ene-2-carboxamide] the same measures were less than 100 nM and less than 100 nM.
For `NC(=O)[C@@H]1[C@H](Nc2c(Cl)cnc3[nH]c(-c4cnc(N5CCOCC5)s4)nc23)[C@H]2C=C[C@@H]1C2` [Compound CCX, (1S,2S,3R,4R)-3-(6-chloro-2-(2-morpholinothiazol-5-yl)-3H-imidazo[4,5-b]pyridin-7-ylamino)bicyclo[2.2.1]hept-5-ene-2-carboxamide] the same measures were less than 100 nM and less than 100 nM.
For `CC(=O)N1CCN(Cc2ccc(-c3nc4c(N[C@H]5[C@@H](C(N)=O)[C@@H]6C=C[C@H]5C6)c(Cl)cnc4[nH]3)cc2)CC1` [Compound CLVII, (1S,2S,3R,4R)-3-{2-[4-(4-Acetyl-piperazin-1-ylmethyl)-phenyl]-6-chloro-3H-imidazo[4,5-b]pyridin-7-ylamino}-bicyclo[2.2.1]hept-5-ene-2-carboxylic acid amide] the same measures were less than 100 nM and less than 100 nM.
For the compound `CC(C)(C)OC(=O)N1CCC(c2nc3c(N[C@H]4[C@@H](C(N)=O)[C@@H]5C=C[C@H]4C5)c(Cl)cnc3[nH]2)CC1` [Compound CCXV, tert-butyl 4-(7-((1R,2R,3S,4S)-3-carbamoylbicyclo[2.2.1]hept-5-en-2-ylamino)-6-chloro-3H-imidazo[4,5-b]pyridin-2-yl)piperidine-1-carboxylate], the IC50 in experiment [1] and in experiment [2] was 1000 to 10000 nM each time.
As to `COc1cccc(-c2nc3c(N[C@H]4[C@@H](C(N)=O)[C@@H]5C=C[C@H]4C5)c(Cl)cnc3[nH]2)n1` [Compound CXXIV, (1S,2S,3R,4R)-3-[6-Chloro-2-(6-methoxy-pyridin-2-yl)-3H-imidazo[4,5-b]pyridin-7-ylamino]-bicyclo[2.2.1]hept-5-ene-2-carboxylic acid amide], the IC50 in experiment [1] and in experiment [2] was less than 100 nM throughout.
In the case of `NC(=O)[C@@H]1[C@H](Nc2c(Br)cnc3[nH]c(-c4ccccc4Cl)nc23)[C@H]2C=C[C@@H]1C2` [Compound CXLIX, (1S,2S,3R,4R)-3-[6-Bromo-2-(2-chloro-phenyl)-3H-imidazo[4,5-b]pyridin-7-ylamino]-bicyclo[2.2.1]hept-5-ene-2-carboxylic acid amide], the values for the IC50 in experiment [1] and in experiment [2] were 100 to 1000 nM and less than 100 nM, respectively.
In the same order, the values of `COc1cc(C2=CCN(C[C@H](C)O)CC2)ccc1-c1nc2c(N[C@H]3[C@@H](C(N)=O)[C@@H]4C=C[C@H]3C4)c(Cl)cnc2[nH]1` [Compound XLVIII, (1S,2S,3R,4R)-3-(6-Chloro-2-[4-[1((S)-2-hydroxypropyl)-1,2,3,6-tetrahydro-pyridin-4-yl]-2-methoxyphenyl]-3H-imidazo[4,5-b]pyridine-7-ylamino)-bicyclo[2.2.1]hept-5-ene-2-carboxylic acid amide] are less than 100 nM and less than 100 nM.
For `C[C@@H](O)CN1CCC(n2cc(-c3nc4c(N[C@H]5[C@@H](C(N)=O)[C@@H]6C=C[C@H]5C6)c(Cl)cnc4[nH]3)cn2)CC1` [Compound LVIII, (1S,2S,3R,4R)-3-(6-Chloro-2-{1-[1-((R)-2-hydroxypropyl)-piperidin-4-yl]-1H-pyrazol-4-yl}-3H-imidazo[4,5-b]pyridine-7-ylamino)-bicyclo[2.2.1]hept-5-ene-2-carboxylic acid amide] the same measures were less than 100 nM and less than 100 nM.
For `C[C@H](O)CN1CCC(n2cc(-c3nc4c(N[C@H]5[C@@H](C(N)=O)[C@@H]6C=C[C@H]5C6)c(Cl)cnc4[nH]3)cn2)CC1` [Compound LIX, (1S,2S,3R,4R)-3-(6-Chloro-2-{1-[1((S)-2-hydroxypropyl)-piperidin-4-yl]-1H-pyrazol-4-yl}-3H-imidazo[4,5-b]pyridine-7-ylamino)-bicyclo[2.2.1]hept-5-ene-2-carboxylic acid amide] the same measures were less than 100 nM and less than 100 nM.
Consider `NC(=O)[C@@H]1[C@H](Nc2c(Cl)cnc3[nH]c(-c4cccc(Cl)c4)nc23)[C@H]2C=C[C@@H]1C2` [Compound CXL, (1S,2S,3R,4R)-3-[6-Chloro-2-(3-chloro-phenyl)-3H-imidazo[4,5-b]pyridin-7-ylamino]-bicyclo[2.2.1]hept-5-ene-2-carboxylic acid amide], for which the IC50 in experiment [1] is 100 to 1000 nM; in experiment [2] it was less than 100 nM.
In the same order, the values of `NC(=O)[C@@H]1[C@H](Nc2c(Cl)cnc3[nH]c(-c4ccnc(N5CCOCC5)c4)nc23)[C@H]2C=C[C@@H]1C2` [Compound CXXVI, (1S,2S,3R,4R)-3-[6-Chloro-2-(2-morpholin-4-yl-pyridin-4-yl)-3H-imidazo[4,5-b]pyridin-7-ylamino]-bicyclo[2.2.1]hept-5-ene-2-carboxylic acid amide] are 100 to 1000 nM and less than 100 nM.
For `Cc1nc(C2CCN(CC(N)=O)CC2)sc1-c1nc2c(N[C@H]3[C@@H](C(N)=O)[C@@H]4C=C[C@H]3C4)c(Cl)cnc2[nH]1` [Compound LXV, (1S,2S,3R,4R)-3-{2-[2-(1-Carbamoylmethyl-piperidin-4-yl)-4-methyljj-thiazol-5-yl]-6-chloro-3H-imidazo[4,5-b]pyridine-7-ylamino}-bicyclo[2.2.1]hept-5-ene-2-carboxylic acid amide] the same measures were less than 100 nM and less than 100 nM.
